US9290544B2, “Methods for making and using molecular switches involving circular permutation” (priority 2004, dated 2016)

Columns and labels:
[1] = Nitrocefin hydrolysis in soluble fraction of cell lysates with and without 5 mM maltose (screen and confirmation of positives); type: biochemical; conditions: 50 μM nitrocefin
Description: Next, 50 μl of PopCulture (Novagen) and 2.5 unit of benzonase nuclease was added to each well and incubated for 15 minutes at room temperature to lyse the cells. The cells debris and any unlysed cells were pelleted by centrifugation and supernatant was recovered. In 96-well format, 60 μl of lysate was assayed for hydrolysis of nitrocefin (50 μM) by monitoring the increase in absorbance at 490 nm in 100 mM sodium phosphate buffer, pH 7.0, both with and without 5 mM maltose. Any lysate in which there was a difference in rate of more than 2-fold (between with and without maltose) was selected for retesting and further investigation.
Library members identified as having more than 200% switching activity in the 96-well plate screen were grown 24-48 hours in 100 ml LB media in 500 ml shaker flasks at 22° C. without IPTG. The cells were pelleted and resuspended in 8 ml assay buffer (100 mM sodium phosphate buffer, pH 7.0) and lysed by French press. The soluble fraction of this lysate was assayed for hydrolysis of nitrocefin (50 μM) at 22° C. as previously described (Guntas and Ostermeier 2004) both with and without 5 mM maltose. Initial rates were determined from absorbance at 486 nm monitored as a function of time. The enzyme was incubated at the assay temperature in the absence or presence of 5 mM maltose for four minutes prior to performing the assay. All assays contained 100 mM sodium phosphate buffer, pH 7.0. Library members for which there was a difference in the initial rate of more than about 2-fold were sequenced (Table 4). Switches RG-5-169 and RG-200-13 were also assayed in the presence of 5 mM sucrose or 5 mM glucose.

[2] = Spectrophotometric nitrocefin hydrolysis assay of purified RG-200-13, 22° C.; type: biochemical; conditions: for Change in velocity of nitrocefin hydrolysis in presence of sugar: 50 μM nitrocefin; for Change in velocity of nitrocefin hydrolysis in presence of sugar / Km / kcat: pH 7.0, 22° C.
Description: (§1) A 6×His tag was added to the C-terminus of RG-200-13 (also termed “RG13” in Examples below) and the fusion was purified as previously described (Guntas and Ostermeier 2004). The protein was purified to approximately 60% purity. The kinetic constants and binding constants were determined from Eadie-Hofstee plots and Eadie plot equivalents, respectively, using a spectrophotometric assay for nitrocefin hydrolysis. Initial rates for nitrocefin hydrolysis were determined from absorbance at 486 nm monitored as a function of time. The enzyme was incubated at the assay temperature in the absence or presence of saccharide for four minutes prior to performing the assay. All assays contained 100 mM sodium phosphate buffer, pH 7.0. The dissociation constant for maltose was determined using change in velocity of nitrocefin hydrolysis as a signal.

[3] = Hydrolysis of cephalothin by RG-200-13 with and without 5 mM maltose; type: biochemical; conditions: substrate cephalothin 250 μM; pH 7.0, 22° C.
Description: as §1
(§2) Maltose binding had the largest effect on cephalothin (of the substrates tested), with the velocity of cephalothin hydrolysis being 32-fold higher in the presence of maltose than in its absence.

[4] = Hydrolysis of benzylpenicillin by RG-200-13 with and without 5 mM maltose; type: biochemical; conditions: pH 7.0, 22° C.
Description: as §1, §2

[5] = Hydrolysis of oxacillin by RG-200-13 with and without 5 mM maltose; type: biochemical; conditions: substrate oxacillin 1 mM; pH 7.0, 22° C.
Description: as §1, §2

[6] = Ampicillin hydrolysis by purified RG13, 25° C.; type: biochemical; conditions: 50 μM ampicillin
Description: All kinetic assays were performed at 25° C. in the presence of 100 mM sodium phosphate buffer, pH 7.0. Ten μl of enzyme stock was added to 1.59 ml buffer (containing the saccharide, if desired). After incubation for 30 seconds, 0.4 ml of 5× substrate was added and the absorbance at the appropriate wavelength was recorded using the Cary50 UV-VIS spectrophotometer. The wavelength monitored was 486 nm, 240 nm, and 232 nm for nitrocefin, carbenicillin, and ampicillin respectively. From the initial rate of reaction the kinetic constants were determined using Eadie-Hofstee plots. […] The rate data was consistent with a small hysteretic effect (Brennan et al. 1994) and not substrate inhibition as preincubation of the enzyme with the substrate for one minute prevented the lag from occurring upon addition of more substrate. Therefore, the steady state parameters for nitrocefin hydrolysis in the absence of maltose were determined by measuring the rate at 1-2 minutes (well after the lag) and correcting the substrate concentration by subtracting the amount of substrate hydrolyzed. In all cases the extent of reaction at the point the rate was measured was less than 25%. In the presence of maltose, no lag was observed.

DH5α-E cells = test: In vivo characterization: MIC of ampicillin for DH5α-E cells expressing the protein; type: cell-based, E. coli; conditions: for Minimum Inhibitory Concentration of Ampicillin: LB plates, 37° C., 20 hours
Description: Overnight inoculums of DH5α-E cells expressing RG13, BLA or BLA(W208G) were diluted into LB media and plated on LB plates, either in the absence or presence of 50 μM maltose, in the presence of increasing amounts of ampicillin. Ampicillin was present in the plates at the following concentrations: 0, 2, 4, 8, 16, 32, 64, 128, 256, 512, and 2000 μg/ml. Cells were plated at approximately 1000 CFU (no antibiotic) per plate. The plates were incubated at 37° C. for 20 hours. The minimum inhibitory concentration (MIC) was defined as the lowest ampicillin concentration at which no colonies were present, or that at which the number of colonies present was <1% of the number of colonies at the next lowest level of ampicillin.

E. coli cells = test: MIC of ampicillin for E. coli cells expressing RG13 from pDIMC8 (Table 11); type: cell-based
Excerpt: The signal recognition domain can be altered by rational design or directed evolution to bind to new effectors. With respect to testing mutations predicted by rational design or screening or selecting libraries created for a directed evolution approach, existing switches are used to efficiently test or select for binding to new ligands in vivo. For example, E. coli cells expressing the MBP-BLA switch RG13 from the lac promoter on pDIMC8 have a higher MIC for ampicillin (Amp) in the presence of maltose than in their absence (Table 11) because the BLA enzymatic activity of RG13 (hydrolysis of ampicillin) is higher in the presence of maltose. Thus, for example, mutations created in RG13 (either by rational design or by a stochastic or semi-stochastic method) such that mutant forms of RG13 bind another ligand X (and behave as a switch) can be screened or selected for in vivo. E. coli producing such a new switch will grow at 200 μg/ml Amp in the presence of X but not in the absence of X.

[7] = Affinity of switches for maltose (method not given); type: binding
Excerpt: Exemplary switches were created by the method having different affinities for maltose.

**Q.** With “RG13: MBP-BLA fusion switch MBP[1-316]-BLA[227-286]-GSGGG-BLA[24-226]-S-MBP[319-370]; SEQ ID NO: 61” as the substance, how does the “Effect of 5 mM sucrose or 5 mM glucose on velocity of nitrocefin hydrolysis” value ([1]; 22° C., lysate soluble fraction) read?
**A.** Its value is “Neither sugar affected the velocity of nitrocefin hydrolysis”.

**Q.** And the “Switching effect: percent change in velocity of nitrocefin hydrolysis in the presence of 5 mM maltose” value ([1]; 5 mM maltose, 100 mM sodium phosphate buffer, pH 7.0)?
**A.** The value was “+1650%”.

**Q.** And the “Change in velocity of nitrocefin hydrolysis in presence of sugar” value (“Change in velocity … of sugar” below) ([2]; Galactose 5 mM)?
**A.** Its value is −3%.

**Q.** What about the “Change in velocity … of sugar” value ([2]; Lactose 5 mM) of the same substance?
**A.** Its value is −4%.

**Q.** What about the “Change in velocity … of sugar” value ([2]; Maltose 5 mM) of the same substance?
**A.** Its value is “+1800%”.

**Q.** What about the “Change in velocity … of sugar” value ([2]; Maltotetraitol 5 mM) of the same substance?
**A.** The value was “+400%”.

**Q.** And the “Change in velocity … of sugar” value ([2]; Maltotriose 5 mM)?
**A.** The value was “+1700%”.

**Q.** And the “Change in velocity … of sugar” value ([2]; Sucrose 5 mM)?
**A.** The value was −5%.

**Q.** What about the Km ([2]; nitrocefin, 5 mM maltose) of the same substance?
**A.** The Km was ~85 µM.

**Q.** And the kcat ([2]; nitrocefin, 5 mM maltose, listed as RG-200-13)?
**A.** The kcat was ~520 s⁻¹.

**Q.** What about the “Km Ratio (with maltose)/(without maltose)” value ([2]; nitrocefin, 22° C.) of the same substance?
**A.** Its value is ~0.26.

**Q.** And the “kcat Ratio (with maltose)/(without maltose)” value ([2]; nitrocefin, 22° C.)?
**A.** Its value is ~6.5.

**Q.** What about the Km ([2]; nitrocefin, no maltose) of the same substance?
**A.** Its Km is ~325 µM.

**Q.** What about the kcat ([2]; nitrocefin, no maltose) of the same substance?
**A.** The kcat was ~80 s⁻¹.

**Q.** And the “Change in velocity … of sugar” value ([2]; β-cyclodextrin 3 mM)?
**A.** The value was “+150%”.

**Q.** And the “Fold increase in velocity of cephalothin hydrolysis with 5 mM maltose” value [3]?
**A.** Its value is 32 fold.

**Q.** What about the “Approximate fold increase in velocity of benzylpenicillin hydrolysis in the presence of 5 mM maltose” value ([4]; substrate benzylpenicillin 100 μM) of the same substance?
**A.** The value was ~17 fold.

**Q.** And the “Approximate fold increase in velocity of benzylpenicillin hydrolysis in the presence of 5 mM maltose” value ([4]; substrate benzylpenicillin 500 μM)?
**A.** Its value is ~7 fold.

**Q.** And the “Approximate fold increase in velocity of oxacillin hydrolysis in the presence of 5 mM maltose” value [5]?
**A.** The value was ~5 fold.

**Q.** What about the “Rate increase with maltose” value [6] of the same substance?
**A.** Its value is 16 fold.

**Q.** What about the “Effect of the same concentration (50 μM) of sucrose or glucose on the MIC” value (DH5α-E cells) of the same substance?
**A.** Its value is “did not affect the MIC”.

**Q.** And the “Increase of MIC for ampicillin in the presence of 50 μM maltose” value (DH5α-E cells)?
**A.** Its value is “four-fold”.

**Q.** What about the “Minimum Inhibitory Concentration of Ampicillin” value (DH5α-E cells; 50 μM maltose) of the same substance?
**A.** The value was 512 µg/mL.

**Q.** What about the “Minimum Inhibitory Concentration of Ampicillin” value (DH5α-E cells; No maltose) of the same substance?
**A.** Its value is 128 µg/mL.

**Q.** And the MIC ampicillin (E. coli cells; supplement to plate: 50 μM maltose)?
**A.** The MIC ampicillin was 400 µg/mL.

**Q.** What about the MIC ampicillin (E. coli cells; supplement to plate: 5 mM maltose) of the same substance?
**A.** Its MIC ampicillin is 400 µg/mL.

**Q.** And the MIC ampicillin (E. coli cells; supplement to plate: none, LB plates, 37° C.)?
**A.** Its MIC ampicillin is 100 µg/mL.

**Q.** And the Kd [7]?
**A.** Its Kd is 1 to 5 µM.
